Our source for the IC50 and viability, T/C values is PubChem BioAssay AID1919001 (Molecular Pharmacology Branch, DTP, NCI, 2023).
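Also: compound exposure lasted 7 days after spheroids had grown for 3 days.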

The test system of one assay is 699152-130-R-J1-PDC complex spheroid growth. Kind of assay: Anticancer human tumor 699152-130-R-J1-PDC patient-derived pancreatic carcinoma cell line growth inhibition [AhR]. The settings on record: curve of first compound; second compound 10 µM. The method in brief:
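Agents were dosed in half-log steps down from roughly clinical Cmax, or from 10 microM where Cmax was unknown, alone and with AhR antagonists. Read-out: percent test/control growth of tumor spheroids containing HUVEC and MSC stromal cells.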
Regarding `CC1COCCN1c1cc(-c2ccnn2C)c2ccnc(-c3ccn[nH]3)c2n1` (stereo not given) + CC(CO)NC(=O)c1cc(-c2ccc(Cl)cc2)nn(-c2cnn(C)c2)c1=O, the IC50 was greater than 1000 nM.

Staying with this assay, now noted: second compound 0.1 µM; first compound 0.00316 µM; stronger effect = lower value.
As for `CC1COCCN1c1cc(-c2ccnn2C)c2ccnc(-c3ccn[nH]3)c2n1` (stereo not given) + Cc1ccccc1N=Nc1ccc(NC(=O)c2ccnn2C)c(C)c1, the viability, T/C is 105%.

Turning to `CC1COCCN1c1cc(-c2ccnn2C)c2ccnc(-c3ccn[nH]3)c2n1` (stereo not given) + CC(CO)NC(=O)c1cc(-c2ccc(Cl)cc2)nn(-c2cnn(C)c2)c1=O, the viability, T/C was 105%.

Still in this assay, the particulars now being: second compound 0.1 µM; first compound 0.01 µM; stronger effect = lower value.
As to `CC1COCCN1c1cc(-c2ccnn2C)c2ccnc(-c3ccn[nH]3)c2n1` (stereo not given) + Cc1ccccc1N=Nc1ccc(NC(=O)c2ccnn2C)c(C)c1, the viability, T/C is 100%.

Take `CC1COCCN1c1cc(-c2ccnn2C)c2ccnc(-c3ccn[nH]3)c2n1` (stereo not given) + CC(CO)NC(=O)c1cc(-c2ccc(Cl)cc2)nn(-c2cnn(C)c2)c1=O: the viability, T/C is 112%.

The assay is the same for the next values; noted with them: second compound 0.1 µM; first compound 0.0316 µM; stronger effect = lower value.
Take `CC1COCCN1c1cc(-c2ccnn2C)c2ccnc(-c3ccn[nH]3)c2n1` (stereo not given) + Cc1ccccc1N=Nc1ccc(NC(=O)c2ccnn2C)c(C)c1: the viability, T/C was 94.6%.

Regarding `NS(=O)(=O)OCC1CC(n2ccc3c(NC4CCc5ccccc54)ncnc32)CC1O` (stereo not given) + Cc1ccccc1N=Nc1ccc(NC(=O)c2ccnn2C)c(C)c1, the viability, T/C is 98.3%.

With `COc1ccc([C@@H](O)c2cc(-c3ncnc4cc(N5CCOCC5)ccc34)c(F)cc2Cl)nn1` + Cc1ccccc1N=Nc1ccc(NC(=O)c2ccnn2C)c(C)c1, the viability, T/C was 93.5%.

For `CC1COCCN1c1cc(-c2ccnn2C)c2ccnc(-c3ccn[nH]3)c2n1` (stereo not given) + CC(CO)NC(=O)c1cc(-c2ccc(Cl)cc2)nn(-c2cnn(C)c2)c1=O, the viability, T/C is 112%.

Staying with this assay, now noted: second compound 0.1 µM; first compound 0.1 µM; stronger effect = lower value.
On to `CC1COCCN1c1cc(-c2ccnn2C)c2ccnc(-c3ccn[nH]3)c2n1` (stereo not given) + Cc1ccccc1N=Nc1ccc(NC(=O)c2ccnn2C)c(C)c1, for which the viability, T/C is 84.1%.

As for `NS(=O)(=O)OCC1CC(n2ccc3c(NC4CCc5ccccc54)ncnc32)CC1O` (stereo not given) + Cc1ccccc1N=Nc1ccc(NC(=O)c2ccnn2C)c(C)c1, the viability, T/C was 107%.

For the molecule `COc1ccc([C@@H](O)c2cc(-c3ncnc4cc(N5CCOCC5)ccc34)c(F)cc2Cl)nn1` + Cc1ccccc1N=Nc1ccc(NC(=O)c2ccnn2C)c(C)c1, the viability, T/C is 108%.

With `CC1COCCN1c1cc(-c2ccnn2C)c2ccnc(-c3ccn[nH]3)c2n1` (stereo not given) + CC(CO)NC(=O)c1cc(-c2ccc(Cl)cc2)nn(-c2cnn(C)c2)c1=O, the viability, T/C is 94.2%.

Still in this assay, the particulars now being: second compound 0.1 µM; first compound 0.316 µM; stronger effect = lower value.
As for `CC1COCCN1c1cc(-c2ccnn2C)c2ccnc(-c3ccn[nH]3)c2n1` (stereo not given) + Cc1ccccc1N=Nc1ccc(NC(=O)c2ccnn2C)c(C)c1, the viability, T/C was 83.3%.

On to `NS(=O)(=O)OCC1CC(n2ccc3c(NC4CCc5ccccc54)ncnc32)CC1O` (stereo not given) + Cc1ccccc1N=Nc1ccc(NC(=O)c2ccnn2C)c(C)c1, for which the viability, T/C was 107%.

Regarding `COc1ccc([C@@H](O)c2cc(-c3ncnc4cc(N5CCOCC5)ccc34)c(F)cc2Cl)nn1` + Cc1ccccc1N=Nc1ccc(NC(=O)c2ccnn2C)c(C)c1, the viability, T/C was 90%.

`CC1COCCN1c1cc(-c2ccnn2C)c2ccnc(-c3ccn[nH]3)c2n1` (stereo not given) + CC(CO)NC(=O)c1cc(-c2ccc(Cl)cc2)nn(-c2cnn(C)c2)c1=O: the viability, T/C is 86.8%.

The assay is the same for the next values; noted with them: second compound 0.1 µM; first compound 1 µM; stronger effect = lower value.
In the case of `CC1COCCN1c1cc(-c2ccnn2C)c2ccnc(-c3ccn[nH]3)c2n1` (stereo not given) + Cc1ccccc1N=Nc1ccc(NC(=O)c2ccnn2C)c(C)c1, the viability, T/C was 62.6%.

For the molecule `NS(=O)(=O)OCC1CC(n2ccc3c(NC4CCc5ccccc54)ncnc32)CC1O` (stereo not given) + Cc1ccccc1N=Nc1ccc(NC(=O)c2ccnn2C)c(C)c1, the viability, T/C is 37.5%.

Turning to `COc1ccc([C@@H](O)c2cc(-c3ncnc4cc(N5CCOCC5)ccc34)c(F)cc2Cl)nn1` + Cc1ccccc1N=Nc1ccc(NC(=O)c2ccnn2C)c(C)c1, the viability, T/C is 81.4%.

Turning to `CC1COCCN1c1cc(-c2ccnn2C)c2ccnc(-c3ccn[nH]3)c2n1` (stereo not given) + CC(CO)NC(=O)c1cc(-c2ccc(Cl)cc2)nn(-c2cnn(C)c2)c1=O, the viability, T/C is 63.3%.

The same assay, now with this note: second compound 0.1 µM; first compound 3.16 µM; stronger effect = lower value.
For `NS(=O)(=O)OCC1CC(n2ccc3c(NC4CCc5ccccc54)ncnc32)CC1O` (stereo not given) + Cc1ccccc1N=Nc1ccc(NC(=O)c2ccnn2C)c(C)c1, the viability, T/C was 21.6%.

Consider `COc1ccc([C@@H](O)c2cc(-c3ncnc4cc(N5CCOCC5)ccc34)c(F)cc2Cl)nn1` + Cc1ccccc1N=Nc1ccc(NC(=O)c2ccnn2C)c(C)c1, for which the viability, T/C was 61.7%.

Staying with this assay, now noted: second compound 0.1 µM; first compound 10 µM; stronger effect = lower value.
Regarding `NS(=O)(=O)OCC1CC(n2ccc3c(NC4CCc5ccccc54)ncnc32)CC1O` (stereo not given) + Cc1ccccc1N=Nc1ccc(NC(=O)c2ccnn2C)c(C)c1, the viability, T/C was 25.2%.

For `COc1ccc([C@@H](O)c2cc(-c3ncnc4cc(N5CCOCC5)ccc34)c(F)cc2Cl)nn1` + Cc1ccccc1N=Nc1ccc(NC(=O)c2ccnn2C)c(C)c1, the viability, T/C is 30.5%.

The same assay, now with this note: second compound 0.316 µM; first compound 0.00316 µM; stronger effect = lower value.
For `CC1COCCN1c1cc(-c2ccnn2C)c2ccnc(-c3ccn[nH]3)c2n1` (stereo not given) + Cc1ccccc1N=Nc1ccc(NC(=O)c2ccnn2C)c(C)c1, the viability, T/C was 87.8%.

As for `CC1COCCN1c1cc(-c2ccnn2C)c2ccnc(-c3ccn[nH]3)c2n1` (stereo not given) + CC(CO)NC(=O)c1cc(-c2ccc(Cl)cc2)nn(-c2cnn(C)c2)c1=O, the viability, T/C was 102%.

The assay is the same for the next values; noted with them: second compound 0.316 µM; first compound 0.01 µM; stronger effect = lower value.
With `CC1COCCN1c1cc(-c2ccnn2C)c2ccnc(-c3ccn[nH]3)c2n1` (stereo not given) + Cc1ccccc1N=Nc1ccc(NC(=O)c2ccnn2C)c(C)c1, the viability, T/C was 96.9%.

Turning to `CC1COCCN1c1cc(-c2ccnn2C)c2ccnc(-c3ccn[nH]3)c2n1` (stereo not given) + CC(CO)NC(=O)c1cc(-c2ccc(Cl)cc2)nn(-c2cnn(C)c2)c1=O, the viability, T/C was 100%.

The same assay, now with this note: second compound 0.316 µM; first compound 0.0316 µM; stronger effect = lower value.
Take `CC1COCCN1c1cc(-c2ccnn2C)c2ccnc(-c3ccn[nH]3)c2n1` (stereo not given) + Cc1ccccc1N=Nc1ccc(NC(=O)c2ccnn2C)c(C)c1: the viability, T/C is 101%.

As to `NS(=O)(=O)OCC1CC(n2ccc3c(NC4CCc5ccccc54)ncnc32)CC1O` (stereo not given) + Cc1ccccc1N=Nc1ccc(NC(=O)c2ccnn2C)c(C)c1, the viability, T/C is 102%.

With `COc1ccc([C@@H](O)c2cc(-c3ncnc4cc(N5CCOCC5)ccc34)c(F)cc2Cl)nn1` + Cc1ccccc1N=Nc1ccc(NC(=O)c2ccnn2C)c(C)c1, the viability, T/C is 83.7%.

Turning to `CC1COCCN1c1cc(-c2ccnn2C)c2ccnc(-c3ccn[nH]3)c2n1` (stereo not given) + CC(CO)NC(=O)c1cc(-c2ccc(Cl)cc2)nn(-c2cnn(C)c2)c1=O, the viability, T/C is 110%.

Still in this assay, the particulars now being: second compound 0.316 µM; first compound 0.1 µM; stronger effect = lower value.
Regarding `CC1COCCN1c1cc(-c2ccnn2C)c2ccnc(-c3ccn[nH]3)c2n1` (stereo not given) + Cc1ccccc1N=Nc1ccc(NC(=O)c2ccnn2C)c(C)c1, the viability, T/C was 82.7%.

Regarding `NS(=O)(=O)OCC1CC(n2ccc3c(NC4CCc5ccccc54)ncnc32)CC1O` (stereo not given) + Cc1ccccc1N=Nc1ccc(NC(=O)c2ccnn2C)c(C)c1, the viability, T/C is 103%.

Take `COc1ccc([C@@H](O)c2cc(-c3ncnc4cc(N5CCOCC5)ccc34)c(F)cc2Cl)nn1` + Cc1ccccc1N=Nc1ccc(NC(=O)c2ccnn2C)c(C)c1: the viability, T/C is 91.8%.

Turning to `CC1COCCN1c1cc(-c2ccnn2C)c2ccnc(-c3ccn[nH]3)c2n1` (stereo not given) + CC(CO)NC(=O)c1cc(-c2ccc(Cl)cc2)nn(-c2cnn(C)c2)c1=O, the viability, T/C was 92.1%.

The assay is the same for the next values; noted with them: second compound 0.316 µM; first compound 0.316 µM; stronger effect = lower value.
On to `CC1COCCN1c1cc(-c2ccnn2C)c2ccnc(-c3ccn[nH]3)c2n1` (stereo not given) + Cc1ccccc1N=Nc1ccc(NC(=O)c2ccnn2C)c(C)c1, for which the viability, T/C is 68.3%.

With `NS(=O)(=O)OCC1CC(n2ccc3c(NC4CCc5ccccc54)ncnc32)CC1O` (stereo not given) + Cc1ccccc1N=Nc1ccc(NC(=O)c2ccnn2C)c(C)c1, the viability, T/C was 104%.

As for `COc1ccc([C@@H](O)c2cc(-c3ncnc4cc(N5CCOCC5)ccc34)c(F)cc2Cl)nn1` + Cc1ccccc1N=Nc1ccc(NC(=O)c2ccnn2C)c(C)c1, the viability, T/C is 97.5%.

A word on the IC50: it is the concentration needed to halve the response being measured. The term viability, T/C denotes the ratio of treated to control.
